Assays:
[1] = tested on: transformed budding yeast TM182-FoOS1; test: Antifungal compound sensitivity test of transformed budding yeast TM182-FoOS1 (Example 13); type: cell-based, Saccharomyces cerevisiae; settings: for Degree of growth of budding yeast TM182-FoOS1 Gal-Ura-Leu medium: control medium, 30° C. 51 hours; for Degree of growth of budding yeast TM182-FoOS1 Gul-Ura-Leu medium: 30° C. 25 hours
Experimental: Similarly, the transformed budding yeast TM182-FoOS1 prepared in Example 12 was cultured at 30° C. for 18 hours in a Glu-Ura-Leu medium. The absorbance at 600 nm of the grown transformed budding yeast in a cell suspension was measured, and a cell suspension diluted with sterilized distilled water to the absorbance of 0.1 was prepared. Further, a cell suspension in which the transformed budding yeast TM182-FoOS1 was diluted 50-fold with a Glu-Ura-Leu medium and, as a control, a cell suspension in which the yeast was diluted 50-fold with a Gal-Ura-Leu medium were prepared.
A solution in which each of Compounds (1) to (3) was dissolved in dimethylsulfoxide (DMSO) to the concentration of 600 ppm, a solution in which each of Compounds […] and (5) was dissolved in dimethylsulfoxide (DMSO) to the concentration of 2000 ppm, and a solution in which each of Compounds (6) and (7) was dissolved in dimethylsulfoxide (DMSO) to the concentration of 20 ppm were prepared, and two microplates were prepared in which each 2.0 μL per well of the Compound-DMSO solution and DMSO as a control were dispensed into 2 wells. In one microplate among them, each 100 μL of cell suspensions of the transformed budding yeast TM182-FoOS1 which had been prepared by dilution with a Glu-Ura-Leu medium as described above was dispensed, and cultured by allowing to stand at 30° C. for 25 hours. In another microplate, as described above, as a control, each 100 μL of cell suspensions of the transformed budding yeast TM182-FoOS1 which had been prepared by dilution with a Gal-Ura-Leu medium was dispensed, and cultured at 30° C. for 51 hours. After culturing, the absorbance at 600 nm of each well was measured with a microplate reader.
A degree of growth of the transformed budding yeast is expressed as a relative value in percentage, letting the absorbance at 600 nm at the concentration of the Compound of 0 ppm to be 100. It was confirmed that an inhibiting degree of growth of the transformed budding yeast TM182-FoOS1 by each test substance was grater than an inhibiting degree of growth of the transformed budding yeast AH22-FoOS1 by each test substance, and the transformed budding yeast TM182-FoOS1 was a transformed cell with the enhanced sensitivity to an antifungal compound as compared with the transformed budding yeast AH22-FoOS1.

[2] = tested on: AH22 strain; test: Antifungal compound sensitivity test, control yeast AH22 strain (Example 3); type: cell-based, Saccharomyces cerevisiae; settings: 30° C. 48 hours, absorbance at 600 nm relative to 0 ppm = 100
Experimental: The transformed budding yeast AH22-BcOS1 prepared in Example 2 was cultured while shaking at 30° C. for 18 hours in a Glu-Leu medium. As a control, the AH22 strain was similarly cultured while shaking at 30° C. for 18 hours in a Glu medium. The absorbance at 600 nm of each of the grown transformed budding yeasts in a cell suspension was measured, and a cell suspension diluted with sterilized distilled water to the absorbance of 0.1 was prepared. Further, a cell suspension in which the aforementioned cell suspension of the transformed budding yeast AH22-BcOS1 was diluted 200-fold with a Glu-Leu medium, and a cell suspension in which the aforementioned cell suspension of the AH22 strain was diluted 200-fold with a Glu medium were prepared. A solution in which each of Compounds (1) to (3) was dissolved in dimethylsulfoxide (DMSO) to the concentration of 60 ppm, a solution in which each of Compounds (4) and (5) was dissolved in dimethylsulfoxide (DMSO) to the concentration of 2000 ppm, and a solution in which each of Compounds (6) and (7) was dissolved in dimethylsulfoxide (DMSO) to the concentration of 20 ppm were prepared, and two microplates were prepared in which each 2.0 μL per well of the Compound solution and DMSO as a control were dispensed into two wells. In one microplate among them, each 200 μL of cell suspensions of the transformed budding yeast AH22-BcOS1 which had been prepared by dilution as described above was dispensed, and cultured by allowing to stand at 30° C. for 48 hours. In another microplate, each 200 μL of the cell suspensions of the control yeast AH22 strain which had been prepared by dilution as described above was dispensed, and cultured by allowing to stand at 30° C. for 48 hours. After culturing, the absorbance at 600 nm of each well was measured with a microplate reader.
Degree of growths of both of the transformed budding yeasts cultured under the presence of each of Compound (1) to (7) and budding yeast as a control therefor are shown in Table 1. Degree of growths of both of the transformed budding yeasts and budding yeasts as a control therefor are expressed by a relative value in percentage, letting the absorbance at 600 nm in a well having the concentration of the aforementioned Compound of 0 ppm to be 100. It was confirmed that an inhibiting degree of growth of TM182-BcOS1 by each test substance was grater than an inhibiting degree of growth of AH22-BcOS1 by each test substance, and the TM182-BcOS1 was a transformed cell with the enhanced sensitivity to an antifungal compound as compared with AH22-BcOS1.

CC12CC1(C)C(=O)N(c1cc(Cl)cc(Cl)c1)C2=O (stereo not drawn) [Compound (1), Procymidone]
Degree of growth of budding yeast TM182-FoOS1 Gal-Ura-Leu medium ([1]; final concentration 6 ppm): 116% | Degree of growth of budding yeast TM182-FoOS1 Gul-Ura-Leu medium ([1]; final concentration 6 ppm): 26% | Degree of growth of budding yeast (%) AH22 Glu medium ([2]; final concentration 0.6 ppm): 99%

O=[N+]([O-])c1c(Cl)c(Cl)c(Cl)c(Cl)c1Cl [Compound (4), Quintozene]
Degree of growth of budding yeast TM182-FoOS1 Gal-Ura-Leu medium ([1]; final concentration 20 ppm): 104% | Degree of growth of budding yeast TM182-FoOS1 Gul-Ura-Leu medium ([1]; final concentration 20 ppm): 20% | Degree of growth of budding yeast (%) AH22 Glu medium ([2]; final concentration 20 ppm): 96%

CC(C)NC(=O)N1CC(=O)N(c2cc(Cl)cc(Cl)c2)C1=O [Compound (2), Iprodione]
Degree of growth of budding yeast TM182-FoOS1 Gal-Ura-Leu medium ([1]; final concentration 6 ppm): 87% | Degree of growth of budding yeast TM182-FoOS1 Gul-Ura-Leu medium ([1]; final concentration 6 ppm): 55% | Degree of growth of budding yeast (%) AH22 Glu medium ([2]; final concentration 0.6 ppm): 99%

COP(=S)(OC)Oc1c(Cl)cc(C)cc1Cl [Compound (5), Tolclofos-methyl]
Degree of growth of budding yeast TM182-FoOS1 Gal-Ura-Leu medium ([1]; final concentration 20 ppm): 80% | Degree of growth of budding yeast TM182-FoOS1 Gul-Ura-Leu medium ([1]; final concentration 20 ppm): 57% | Degree of growth of budding yeast (%) AH22 Glu medium ([2]; final concentration 20 ppm): 97%

N#Cc1c[nH]cc1-c1cccc2c1OC(F)(F)O2 [Compound (6), Fludioxonil]
Degree of growth of budding yeast TM182-FoOS1 Gal-Ura-Leu medium ([1]; final concentration 0.2 ppm): 99% | Degree of growth of budding yeast TM182-FoOS1 Gul-Ura-Leu medium ([1]; final concentration 0.2 ppm): 7% | Degree of growth of budding yeast (%) AH22 Glu medium ([2]; final concentration 0.2 ppm): 99%

N#Cc1c[nH]cc1-c1cccc(Cl)c1Cl [Compound (7), Fenpiclonil]
Degree of growth of budding yeast TM182-FoOS1 Gal-Ura-Leu medium ([1]; final concentration 0.2 ppm): 89% | Degree of growth of budding yeast TM182-FoOS1 Gul-Ura-Leu medium ([1]; final concentration 0.2 ppm): 21% | Degree of growth of budding yeast (%) AH22 Glu medium ([2]; final concentration 0.2 ppm): 101%

C=CC1(C)OC(=O)N(c2cc(Cl)cc(Cl)c2)C1=O (stereo not drawn) [Compound (3), Vinclozolin]
Degree of growth of budding yeast TM182-FoOS1 Gal-Ura-Leu medium ([1]; final concentration 6 ppm): 99% | Degree of growth of budding yeast TM182-FoOS1 Gul-Ura-Leu medium ([1]; final concentration 6 ppm): 22% | Degree of growth of budding yeast (%) AH22 Glu medium ([2]; final concentration 0.6 ppm): 98%
